In patent US6995188B2 (priority 2002, dated 2006):
Read-outs that look alike come from different tables or passages of the source.

Key:
[1] = physchem; settings: water
[2] = in vivo; settings: Swiss Webster, mouse
[3] = system: P388 lymphocytic leukemia cells; settings: mouse, in vivo, ip, 100 mg/kg; cited from earlier work
[4] = Swiss Webster, mouse, in vivo; for Dead/Total Number / Dead/Total Number for IP Administration: ip
[5] = system: normal donor cells
[6] = system: human leukemia cell lines; assay type: cell-based

C[As](C)SC[C@H](NC(=O)CC[C@H](N)C(=O)O)C(=O)NCC(=O)O [SGLU1, S-(dimethylarsino) glutathione]
solubility [1]: ~60 mg/mL
LD50 [2]: 350 mg/kg
MTD ([2]; iv): 350 mg/kg
% T/C [3]: 164%
tolerance (mortality) [4]: tolerated the 178 mg/kg and the 285 mg/kg doses of SGLU1 well
Dead/Total Number ([4]; 178 mg/kg): 0/5
Dead/Total Number ([4]; 285 mg/kg): 1/5
Dead/Total Number for IP Administration ([4]; 318 mg/kg): 0/5
Dead/Total Number ([4]; 357 mg/kg): 5/5
Dead/Total Number for IP Administration ([4]; 375 mg/kg): 4/5
Dead/Total Number for IV Administration ([4]; 318 mg/kg): 1/5
Dead/Total Number for IV Administration ([4]; 375 mg/kg): 5/5
toxicity to normal cells, long-term clonogenic assay [5]: less toxic then arsenic trioxide to normal cells
anti-cancer activity against a panel of human leukemia cell lines [6]: significant anti-cancer activity
